# Where two headings read alike, the source gives them in different places.
# Columns and labels:
# [1] = Terminal pharmacokinetics: plasma, brain and cerebrospinal fluid concentrations; type: in vivo; settings: one hour after 15 mg/kg SC or IP, CD-1 mice
# Procedure: Given that opioid receptors are highly concentrated in the dorsal root ganglion (DRG) and brain (Martin-Schild et al., supra), terminal pharmacokinetic studies were performed to verify the concentration in the plasma, cerebrospinal fluid and brain.
# MOR [2] = target: T1, MOR (Homo sapiens, UniProt P35372); assay: EM1 concentration-response curves for β-arrestin recruitment with or without compound, full functional allosteric model; type: cell-based
# T1 sequence (P35372 whole entry): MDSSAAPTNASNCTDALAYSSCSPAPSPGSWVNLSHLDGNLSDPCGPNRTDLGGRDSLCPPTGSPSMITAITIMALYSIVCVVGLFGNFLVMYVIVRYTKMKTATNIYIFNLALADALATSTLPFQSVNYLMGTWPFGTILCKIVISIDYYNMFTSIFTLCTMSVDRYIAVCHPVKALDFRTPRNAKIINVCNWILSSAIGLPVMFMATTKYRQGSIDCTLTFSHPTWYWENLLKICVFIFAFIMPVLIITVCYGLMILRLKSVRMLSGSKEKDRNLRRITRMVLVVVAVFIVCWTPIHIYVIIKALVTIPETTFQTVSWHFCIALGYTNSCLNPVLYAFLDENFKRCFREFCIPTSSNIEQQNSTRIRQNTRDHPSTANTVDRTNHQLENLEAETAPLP
# [3] = Plasma concentration time-course after SC or IP dosing; type: in vivo; settings: 15 mg/kg, intraperitoneal or subcutaneous, CD-1 mice, blood samples
# Procedure: To be useful as a therapeutic, a MOR PAM must not only be able to activate endogenous and non-endogenous orthosteric ligands of the MOR, it must also persist in the body in concentrations sufficient to exert its allosteric effect. To test intracorporeal persistence, murine models were chosen, based on the preponderance of data available linking endogenous opioids to analgesic mechanisms. Compound 9 (Table 10) was formulated for dosing in CD-1 mice. Two mice per group were tested and each group was administered 15 mg/kg of the compound. Concentrations of the compound were measured by mass spectrometry of blood samples.
# ICR rats = assay: Warm water tail-flick assay with intrathecal exogenous EM1; type: in vivo
# Procedure: (§1) The warm water tail-flick assay was chosen as the acute pain model for the reasons described above. […] Przewlocka et al., (1999), supra. First, minimum and sub-efficacious dose of EM1, applied via intrathecal injection to rats, were identified. The values obtained for the minimum (3 ug/kg) and sub-efficacious dose of EM1 (1 ug/kg) are in agreement with those found in the literature. Horvath (2000), supra. In addition, the time required for maximal response to an intrathecal injection of EM1 to be observed, as well as the time required for a return to basal levels of antinociception, were determined and likewise found to be in agreement with those found in the literature.
# . For these experiments, the delay in tail flick induced by EM1 alone was compared to the delay in tail flick when compound 9 was dosed in ICR-rats in combination with intrathecal administration of minimum and sub-efficacious doses of EM1. […]; These effects might be due to any of the following: Ton[Endomorphin], KElim[Endomorphin], Toff[Endomorphin], KI[Endomorphin], and possibly additional mechanisms.
# […]. The ability to rescue a sub-therapeutic dose of the endogenous ligand in a dose- and time-dependent manner with a subtype selective MOR PAM has significant implications for the clinical viability of the use of MOR PAMs in acute and chronic pain settings.
# MOR [4] = target: T1, MOR; type: cell-based
# MOR [5] = target: T1, MOR; assay: cell-based; settings: EC20 morphine agonism of MOR
# [6] = Plasma, brain and spinal cord concentrations after subcutaneous dosing; type: in vivo; settings: subcutaneous 15 mg/kg, ICR rats
# Procedure: Concentrations of subcutaneously injected compound 9 in spinal tissue (where the DRG are located) were also assessed.
# Sprague-Dawley rats = assay: Gastrointestinal transit of charcoal bolus and stomach contents; settings: morphine 10 mg/kg, compound 9 15, 30, 60 mg/kg
# MOR [7] = target: T1, MOR; assay: cell-based; settings: EC20 morphine agonism of MOR; remark: listed apart in the source
# CD1 mice = assay: Warm water tail-flick assay, compound alone (basal EM1 only); type: in vivo; settings: 15 mg/kg subcutaneous, 30 minutes after dosing, no exogenous EM1
# Text: An acute pain model was used to determine the analgesic effect of a MOR PAM administered by itself (i.e., in the absence of exogenous opioid). This approach avoids the complexity of matching the pharmacokinetic profile of endomorphin release in response to a pain-inducing insult with a (1) particular MOR PAM (to account for basal endomorphin analgesis) and (2) the measurement window of the study, as would be required for a chronic pain study. Accordingly, an acute pain model, in which the pharmacodynamic measurement was performed directly after the insult, was employed. This was expected to isolate the low basal levels of EM1 analgesis that existed prior to the insult, thereby eliminating the contribution of the time course of release of endogenous opioids in response to the insult. Mousa et al., supra.
# as §1, with “The values obtained for the minimum (3 ug/kg) and sub-efficacious dose of EM1 (1 ug/kg) are in agreement with those found in the literature. Horvath (2000), supra.” left out, “literature. […]” for “literature.”
# MOR [8] = target: T1, MOR; assay: cell-based; settings: EC20 Oxycodone agonism of MOR
# mu opioid receptor (MOR) = mu opioid receptor (MOR) (Homo sapiens, UniProt P35372); assay: PathHunter β-arrestin recruitment assay, PAM mode with EC20 endomorphin-1; type: cell-based
# mu opioid receptor (MOR), sequence (P35372 whole entry, the tested form may be a part): as the sequence (P35372 whole entry) above
# In short: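 β-Arrestin recruitment to the receptor was tracked by chemiluminescent β-galactosidase activity from complementing fragments (ED on receptor, EA on β-arrestin). Per-compound outputs were EC50 and percent maximal response.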
structure (smiles),measurement,setting,value
"Fc1cnc(Cl)nc1N1CCCCC1c1cccc(C(F)(F)F)c1 (single isomer, unassigned) [compound 9]",persistence in brain and plasma,[1],"persists in brain and plasma, at therapeutically relevant concentrations"
same,effective potency for PAM effect,MOR [2],70.8 nM
same,factor of increase of the affinity (α) of EM1,MOR [2],9
same,factor of increase of the efficacy (β) of EM1,MOR [2],3
same,shift in the potency of EM1,MOR [2],concentration-dependent and saturable leftward shifts
same,"αβ product, in vitro",MOR [2]; β-arrestin endomorphin responses,27
same,exposure and half-life,[3],exposures and an a half-life appropriate for in vivo studies
same,effect on antinociception of a minimally efficacious dose of EM1,"ICR rats; rat, in vivo",potentiates the effect of suboptimal doses of EM-1
same,effect on antinociception of a sub-efficacious dose of EM1,"ICR rats; rat, in vivo",potentiates the effect of sub-efficaceous doses of the opioid
same,"αβ product, in vivo effects fit","ICR rats; tail-flick, EM1 3 μg intrathecal (FIG. 12C)",31.5
same,shift in the potency of EM1,MOR [4]; cAMP assay,concentration-dependent and saturable leftward shifts
same,factor of increase of the affinity (α) of EM1,MOR [4]; cAMP signaling,2
same,factor of increase of the efficacy (β) of EM1,MOR [4]; cAMP signaling,1.8
same,effective potency for PAM effect,"MOR [4]; cAMP signaling, EM1",44 nM
same,EC50,"MOR [5]; RC50, β-arrestin",10700 nM
same,Max. Response,MOR [5]; β-arrestin,456
same,exposure in spinal tissue and brain,[6],good exposures in spinal tissue
same,stomach weight,Sprague-Dawley rats; 20 minutes after charcoal,unchanged
same,GI transit,Sprague-Dawley rats; subcutaneous 1 hour before charcoal,unchanged
same,EC50,"MOR [7]; RC50, cAMP",2950 nM
same,Max. Response,MOR [7]; cAMP,38
same,"antinociceptive effect, tail-flick latency",CD1 mice,No antinociceptive effects were observed
same,EC50,"MOR [8]; RC50, cAMP",3180 nM
same,Max. Response,MOR [8]; cAMP,40
same,EC50,"mu opioid receptor (MOR); EM1-mediated MOR agonism, read-out: RC50 for β-arrestin recruitment",360 nM
same,β-arr Max. Resp.,mu opioid receptor (MOR); maximal response for β-arrestin recruitment,F (F represents a maximal response of > 60%)
same,EC50,"mu opioid receptor (MOR); β-arrestin recruitment, read-out: β-arr. EC50",< 700 nM
same,Max. Response,"mu opioid receptor (MOR); β-arrestin, EC20 EM-1 agonism of MOR",210

# Source: US11071731B2, “Allosteric modulators of the mu opioid receptor” (Chiromics, LLC, priority 2017, dated 2021)
